Paper PMC6700428, “Purification and characterization of an isoflavones conjugate hydrolyzing β-glucosidase (ICHG) from Cyamopsis tetragonoloba (guar)” (Biochemistry and Biophysics Reports, 2019)

Key:
[1] = test system: T1, Isoflavones conjugate hydrolyzing β-glucosidase (ICHG); assay: 4-nitrophenol release at […] nm, Lineweaver-Burk plot; assay type: biochemical, Cyamopsis tetragonoloba; settings: optimum pH 4.5 and 37 °C; citrate phosphate buffer 0.1 M; PNPG 0.1-5 mM
T1 construct: native, purified from dried seeds (ammonium sulphate, Sephadex G-75, DEAE-Sepharose); ~50 kDa subunit, ~150 kDa native, probable homotrimer; five internal peptides closest to Cicer arietinum beta-glucosidase

[2] = target: Isoflavones conjugate hydrolyzing β-glucosidase (ICHG) from Cyamopsis tetragonoloba (guar) (Cyamopsis tetragonoloba (guar)); assay: SEC; Sephadex G-75 column (1.8 x 50 cm), 0.02 M sodium phosphate buffer pH 6, standard proteins of 66 to 124 kDa; native mass (~150 kDa) compared with the subunit mass on SDS-PAGE (~50 kDa)

Km [1] [µM]	stoichiometry N [2]	Compound
860		O=[N+]([O-])c1ccc(O[C@@H]2O[C@H](CO)[C@@H](O)[C@H](O)[C@H]2O)cc1 [para nitrophenyl -β-D- glucopyranoside]
	3	Isoflavones conjugate hydrolyzing β-glucosidase (ICHG) from Cyamopsis tetragonoloba (guar) (enzyme)
